Results reported in the supplement of paper PMC6045584.
± gives the standard deviation of the averaged measurements.

Legend:
[1] = compound: CC(=O)NCC(=O)N1[C@@H]2CC[C@H]1c1ccc(Nc3ncc(C(F)(F)F)c(NC4CCC4)n3)cc12; assay: surviving fraction relative to DMSO-only wells; higher = less growth inhibition; conditions: exposure time: 5 days
Procedure, shortened: (§1)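 After seeding at 250–500 cells per well in 384-well plates and a 24-hour wait, log-phase tumour cell lines were exposed without interruption for five days to inhibitors at 0.5, 1, 5, 10, 50, 100, 500 and 1000 nM. CellTiter-Glo luminescence was recorded after 10 minutes at room temperature. Viability is reported as surviving fraction, the luminescence normalised to the median of DMSO-only wells.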

PACLITAXEL [2] = compound: T1, CC(=O)O[C@H]1C(=O)[C@@]2(C)[C@H]([C@H](OC(=O)c3ccccc3)[C@]3(O)C[C@H](OC(=O)[C@H](O)[C@@H](NC(=O)c4ccccc4)c4ccccc4)C(C)=C1C3(C)C)[C@]1(OC(C)=O)CO[C@@H]1C[C@@H]2O [PACLITAXEL]; assay: as above; conditions: exposure time: 5 days
Procedure, shortened: as §1

[3] = compound: CC(=O)c1c(C)c2cnc(Nc3ccc(N4CCNCC4)cn3)nc2n(C2CCCC2)c1=O; assay: as above; conditions: exposure time: 5 days
Procedure, shortened: as §1

CAMPTOTHECIN [4] = compound: T2, CC[C@@]1(O)C(=O)OCc2c1cc1n(c2=O)Cc2cc3ccccc3nc2-1 [CAMPTOTHECIN]; assay: as above; conditions: exposure time: 5 days
Procedure, shortened: as §1

YM155 [5] = compound: T3, COCC[n+]1c2c(n(Cc3cnccn3)c1C)C(=O)c1ccccc1C2=O [YM155]; assay: as above; conditions: exposure time: 5 days
Procedure, shortened: as §1

GEFITINIB [6] = compound: T4, COc1cc2ncnc(Nc3ccc(F)c(Cl)c3)c2cc1OCCCN1CCOCC1 [GEFITINIB]; assay: as above; conditions: exposure time: 5 days
Procedure, shortened: as §1

OSI-906 [7] = compound: T5, C[C@]1(O)C[C@@H](c2nc(-c3ccc4ccc(-c5ccccc5)nc4c3)c3c(N)nccn32)C1 [OSI-906]; assay: as above; conditions: exposure time: 5 days
Procedure, shortened: as §1

CELECOXIB [8] = compound: T6, Cc1ccc(-c2cc(C(F)(F)F)nn2-c2ccc(S(N)(=O)=O)cc2)cc1 [CELECOXIB]; assay: as above; conditions: exposure time: 5 days
Procedure, shortened: as §1

CARBOPLATIN [9] = compound: T7, O=C(O)C1(C(=O)O)CCC1.[NH2-].[NH2-].[Pt+2] [CARBOPLATIN]; assay: as above; conditions: exposure time: 5 days
Procedure, shortened: as §1

[10] = compound: CC(=O)NCC(=O)N1[C@@H]2CC[C@H]1c1ccc(Nc3ncc(C(F)(F)F)c(NC4CCC4)n3)cc12; assay: area under dose-response curve of surviving fraction (unscaled, Aref=0) (surviving fraction x log10(nM)); higher = more resistant; conditions: exposure time: 5 days; dose range 0.5-1000 nM
Procedure, shortened: (§2)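 Each tumour cell line was screened three times in 384-well plates, receiving eight inhibitor concentrations from 0.5 to 1000 nM for five days. CellTiter-Glo luminescence gave viability, normalised to DMSO-only wells. Using the drc R package, surviving fractions were fitted with 3-parameter logistic dose-response curves, and the unscaled activity area over log10 dose (Aref = 0) was taken as the area under the curve.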

PACLITAXEL [11] = compound: T1, PACLITAXEL; assay: as above; conditions: exposure time: 5 days; dose range 0.5-1000 nM
Procedure, shortened: as §2

[12] = compound: CC(=O)c1c(C)c2cnc(Nc3ccc(N4CCNCC4)cn3)nc2n(C2CCCC2)c1=O; assay: as above; conditions: exposure time: 5 days; dose range 0.5-1000 nM
Procedure, shortened: as §2

CAMPTOTHECIN [13] = compound: T2, CAMPTOTHECIN; assay: as above; conditions: exposure time: 5 days; dose range 0.5-1000 nM
Procedure, shortened: as §2

YM155 [14] = compound: T3, YM155; assay: as above; conditions: exposure time: 5 days; dose range 0.5-1000 nM
Procedure, shortened: as §2

GEFITINIB [15] = compound: T4, GEFITINIB; assay: as above; conditions: exposure time: 5 days; dose range 0.5-1000 nM
Procedure, shortened: as §2

OSI-906 [16] = compound: T5, OSI-906; assay: as above; conditions: exposure time: 5 days; dose range 0.5-1000 nM
Procedure, shortened: as §2

CELECOXIB [17] = compound: T6, CELECOXIB; assay: as above; conditions: exposure time: 5 days; dose range 0.5-1000 nM
Procedure, shortened: as §2

CARBOPLATIN [18] = compound: T7, CARBOPLATIN; assay: as above; conditions: exposure time: 5 days; dose range 0.5-1000 nM
Procedure, shortened: as §2

**Q.** Which results are given for MDAMB231 BREAST?
**A.** surviving fraction ([1]; 0.5 nM): 0.975 ± 0.018; surviving fraction ([1]; 1 nM): 0.98 ± 0.016; surviving fraction ([1]; 5 nM): 0.974 ± 0.011; surviving fraction ([1]; 10 nM): 0.967 ± 0.015; surviving fraction ([1]; 50 nM): 0.706 ± 0.063; surviving fraction ([1]; 100 nM): 0.571 ± 0.027; surviving fraction ([1]; 500 nM): 0.416 ± 0.022; surviving fraction ([1]; 1000 nM): 0.337 ± 0.018; surviving fraction (PACLITAXEL [2]; 0.5 nM): 0.706 ± 0.028; surviving fraction (PACLITAXEL [2]; 1 nM): 0.328 ± 0.039; surviving fraction (PACLITAXEL [2]; 5 nM): 0.163 ± 0.0032; surviving fraction (PACLITAXEL [2]; 10 nM): 0.125 ± 0.0027; surviving fraction (PACLITAXEL [2]; 50 nM): 0.121 ± 0.0031; surviving fraction (PACLITAXEL [2]; 100 nM): 0.121 ± 0.0088; surviving fraction (PACLITAXEL [2]; 500 nM): 0.0907 ± 0.0055; surviving fraction (PACLITAXEL [2]; 1000 nM): 0.0993 ± 0.0078; surviving fraction ([3]; 0.5 nM): 0.994 ± 0.01; surviving fraction ([3]; 1 nM): 1.03 ± 0.032; surviving fraction ([3]; 5 nM): 1.03 ± 0.014; surviving fraction ([3]; 10 nM): 1.01 ± 0.031; surviving fraction ([3]; 50 nM): 1.045 ± 0.0069; surviving fraction ([3]; 100 nM): 1.02 ± 0.021; surviving fraction ([3]; 500 nM): 0.905 ± 0.013; surviving fraction ([3]; 1000 nM): 0.888 ± 0.023; surviving fraction (CAMPTOTHECIN [4]; 0.5 nM): 0.887 ± 0.025; surviving fraction (CAMPTOTHECIN [4]; 1 nM): 0.902 ± 0.028; surviving fraction (CAMPTOTHECIN [4]; 5 nM): 0.803 ± 0.04; surviving fraction (CAMPTOTHECIN [4]; 10 nM): 0.603 ± 0.019; surviving fraction (CAMPTOTHECIN [4]; 50 nM): 0.276 ± 0.0089; surviving fraction (CAMPTOTHECIN [4]; 100 nM): 0.211 ± 0.007; surviving fraction (CAMPTOTHECIN [4]; 500 nM): 0.0976 ± 0.004; surviving fraction (CAMPTOTHECIN [4]; 1000 nM): 0.0968 ± 0.0048; surviving fraction (YM155 [5]; 0.5 nM): 0.91 ± 0.0095; surviving fraction (YM155 [5]; 1 nM): 0.903 ± 0.024; surviving fraction (YM155 [5]; 5 nM): 0.112 ± 0.002; surviving fraction (YM155 [5]; 10 nM): 0.0683 ± 0.0035; surviving fraction (YM155 [5]; 50 nM): 0.0386 ± 0.0022; surviving fraction (YM155 [5]; 100 nM): 0.0352 ± 0.002; surviving fraction (YM155 [5]; 500 nM): 0.0302 ± 0.00043; surviving fraction (YM155 [5]; 1000 nM): 0.0372 ± 0.0043; surviving fraction (GEFITINIB [6]; 0.5 nM): 0.989 ± 0.026; surviving fraction (GEFITINIB [6]; 1 nM): 0.987 ± 0.026; surviving fraction (GEFITINIB [6]; 5 nM): 1.02 ± 0.02; surviving fraction (GEFITINIB [6]; 10 nM): 1.03 ± 0.024; surviving fraction (GEFITINIB [6]; 50 nM): 1.06 ± 0.027; surviving fraction (GEFITINIB [6]; 100 nM): 1.06 ± 0.037; surviving fraction (GEFITINIB [6]; 500 nM): 1.06 ± 0.018; surviving fraction (GEFITINIB [6]; 1000 nM): 1.04 ± 0.037; surviving fraction (OSI-906 [7]; 0.5 nM): 0.917 ± 0.034; surviving fraction (OSI-906 [7]; 1 nM): 0.9167 ± 0.0045; surviving fraction (OSI-906 [7]; 5 nM): 0.937 ± 0.021; surviving fraction (OSI-906 [7]; 10 nM): 0.918 ± 0.03; surviving fraction (OSI-906 [7]; 50 nM): 0.957 ± 0.031; surviving fraction (OSI-906 [7]; 100 nM): 0.947 ± 0.013; surviving fraction (OSI-906 [7]; 500 nM): 0.922 ± 0.014; surviving fraction (OSI-906 [7]; 1000 nM): 0.908 ± 0.032; surviving fraction (CELECOXIB [8]; 0.5 nM): 0.973 ± 0.02; surviving fraction (CELECOXIB [8]; 1 nM): 1 ± 0.015; surviving fraction (CELECOXIB [8]; 5 nM): 0.985 ± 0.018; surviving fraction (CELECOXIB [8]; 10 nM): 1 ± 0.015; surviving fraction (CELECOXIB [8]; 50 nM): 1.01 ± 0.02; surviving fraction (CELECOXIB [8]; 100 nM): 1.04 ± 0.012; surviving fraction (CELECOXIB [8]; 500 nM): 1.04 ± 0.03; surviving fraction (CELECOXIB [8]; 1000 nM): 1.02 ± 0.033; surviving fraction (CARBOPLATIN [9]; 0.5 nM): 0.997 ± 0.048; surviving fraction (CARBOPLATIN [9]; 1 nM): 0.988 ± 0.019; surviving fraction (CARBOPLATIN [9]; 5 nM): 0.994 ± 0.036; surviving fraction (CARBOPLATIN [9]; 10 nM): 1 ± 0.027; surviving fraction (CARBOPLATIN [9]; 50 nM): 1.01 ± 0.019; surviving fraction (CARBOPLATIN [9]; 100 nM): 1.02 ± 0.038; surviving fraction (CARBOPLATIN [9]; 500 nM): 1.03 ± 0.026; surviving fraction (CARBOPLATIN [9]; 1000 nM): 1.02 ± 0.041; area under dose-response curve [10]: 2.51; area under dose-response curve (PACLITAXEL [11]): 0.557; area under dose-response curve [12]: 3.24; area under dose-response curve (CAMPTOTHECIN [13]): 1.62; area under dose-response curve (YM155 [14]): 0.671; area under dose-response curve (GEFITINIB [15]): 3.4; area under dose-response curve (OSI-906 [16]): 3.07; area under dose-response curve (CELECOXIB [17]): 3.3; area under dose-response curve (CARBOPLATIN [18]): 3.32

**Q.** For HS57T LUNG, which “area under dose-response curve” value [10] is on record?
**A.** Its value is 2.46.

**Q.** And the “area under dose-response curve” value (PACLITAXEL [11])?
**A.** Its value is 0.449.

**Q.** And the “area under dose-response curve” value [12]?
**A.** Its value is 3.56.

**Q.** What about the “area under dose-response curve” value (CAMPTOTHECIN [13]) of the same test system?
**A.** The value was 1.43.

**Q.** And the “area under dose-response curve” value (YM155 [14])?
**A.** Its value is 1.67.

**Q.** And the “area under dose-response curve” value (GEFITINIB [15])?
**A.** The value was 3.31.

**Q.** What about the “area under dose-response curve” value (OSI-906 [16]) of the same test system?
**A.** The value was 2.92.

**Q.** What about the “area under dose-response curve” value (CELECOXIB [17]) of the same test system?
**A.** The value was 3.47.

**Q.** And the “area under dose-response curve” value (CARBOPLATIN [18])?
**A.** Its value is 3.58.
